IC50 data for 75 compounds are collected here from PubChem BioAssay AID1159605 (The Scripps Research Institute Molecular Screening Center, 2016).

The source made the active and inactive calls.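 The calls were made as follows: active = IC50 of 10 µM or lower; inactive = IC50 above 10 µM.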

By IC50 is commonly meant the concentration needed to halve the response being measured.

For the test, the target named is Mitogen-activated protein kinase kinase kinase 5 (Homo sapiens) (UniProt Q99683). In words: ASK1 kinase inhibitor potency, dose response, biochemical, AlphaScreen, MKK6 phosphorylation (AID 1159605).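 Also: ASK1 phosphorylation of MKK6 substrate detected with anti-phospho-MKK6 antibody beads; inhibitors lower the luminescent signal by blocking MKK6 phosphorylation.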 Particulars: AlphaScreen luminescence. For orientation: In Alpha technology, singlet oxygen from a donor bead excites a nearby acceptor bead.
Mitogen-activated protein kinase kinase kinase 5 (Homo sapiens), sequence (Q99683 whole entry, looked up): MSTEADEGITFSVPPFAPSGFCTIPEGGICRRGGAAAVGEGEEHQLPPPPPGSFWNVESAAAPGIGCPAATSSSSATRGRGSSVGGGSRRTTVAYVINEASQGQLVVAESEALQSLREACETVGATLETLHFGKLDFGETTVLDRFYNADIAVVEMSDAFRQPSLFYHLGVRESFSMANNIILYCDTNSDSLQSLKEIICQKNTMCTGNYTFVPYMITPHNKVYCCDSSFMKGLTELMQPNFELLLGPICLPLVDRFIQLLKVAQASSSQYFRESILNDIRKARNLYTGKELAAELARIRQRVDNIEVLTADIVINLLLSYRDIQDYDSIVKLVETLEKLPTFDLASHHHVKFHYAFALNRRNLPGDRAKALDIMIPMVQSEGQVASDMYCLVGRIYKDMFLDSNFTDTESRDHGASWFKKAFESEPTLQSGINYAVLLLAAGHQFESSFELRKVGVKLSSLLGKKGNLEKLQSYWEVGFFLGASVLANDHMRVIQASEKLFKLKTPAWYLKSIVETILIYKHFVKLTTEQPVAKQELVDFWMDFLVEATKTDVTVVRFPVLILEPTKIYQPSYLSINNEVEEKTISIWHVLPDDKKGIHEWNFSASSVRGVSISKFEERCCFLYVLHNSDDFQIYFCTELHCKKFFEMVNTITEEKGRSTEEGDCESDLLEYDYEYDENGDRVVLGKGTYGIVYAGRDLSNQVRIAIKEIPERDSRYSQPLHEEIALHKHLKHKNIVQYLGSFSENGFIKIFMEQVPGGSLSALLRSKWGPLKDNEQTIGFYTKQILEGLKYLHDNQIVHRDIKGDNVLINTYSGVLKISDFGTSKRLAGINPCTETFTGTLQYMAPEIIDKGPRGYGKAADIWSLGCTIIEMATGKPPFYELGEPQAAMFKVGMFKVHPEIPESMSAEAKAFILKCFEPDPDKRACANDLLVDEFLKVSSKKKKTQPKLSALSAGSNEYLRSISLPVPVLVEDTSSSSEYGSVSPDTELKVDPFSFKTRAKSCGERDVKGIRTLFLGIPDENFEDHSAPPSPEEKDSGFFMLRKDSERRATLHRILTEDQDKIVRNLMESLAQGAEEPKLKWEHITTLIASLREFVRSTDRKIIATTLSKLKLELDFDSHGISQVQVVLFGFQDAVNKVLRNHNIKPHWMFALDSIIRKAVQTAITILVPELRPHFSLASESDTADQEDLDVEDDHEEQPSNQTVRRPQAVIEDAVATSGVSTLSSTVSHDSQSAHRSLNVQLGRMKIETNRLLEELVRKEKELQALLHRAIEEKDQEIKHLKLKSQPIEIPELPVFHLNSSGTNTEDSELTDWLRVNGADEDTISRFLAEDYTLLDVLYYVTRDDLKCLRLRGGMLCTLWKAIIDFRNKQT
Regarding `OC1CCN(c2ccc(Nc3nccc(-c4cc(F)cc(N5CCN(C6CC6)CC5)c4)n3)cc2)CC1`, the IC50 is > 19.2 µM (inactive). Then `CCN(CC)c1nc(Nc2ccc(N3CCOCC3)cc2)nc(N2CCN(Cc3ccc4c(c3)OCO4)CC2)n1`, with 8.17 µM; and `CC(C)n1cnc2c(Nc3ccc4c(c3)OCO4)nc(Nc3cccc(N(C)C)c3)nc21`, with > 19.9 µM (inactive); and `c1ccc(CN2CCC(Nc3nc(N4CCN(Cc5ccc6c(c5)OCO6)CC4)nc4c3ncn4C3CCCCC3)CC2)cc1`, with “inactive”.

Regarding `c1cc(Nc2ccc3c(c2)OCO3)nc(N2CCN(Cc3ccc4c(c3)OCO4)CC2)n1`, the IC50 is > 20.1 µM (inactive).

On to `FC(F)(F)c1cccc(CNc2ccnc(Nc3ccc(N4CCOCC4)cc3)n2)c1`, for which the IC50 result is “inactive”.

On to `CC(C)n1cnc2c(Nc3ccccc3)nc(Nc3ccc(N4CCOCC4)cc3)nc21`, for which the IC50 result is “inactive”. Next, `COc1ccc(-c2nc3ncnc(Nc4cc(OC)c(OC)c(OC)c4)c3[nH]2)cn1`: > 18.1 µM (inactive); `COc1cc(Nc2nc(N3CCc4ccccc4C3)nc3c2ncn3-c2ccccc2)cc(OC)c1OC`: “inactive”; `Cc1cc(Nc2ccc3c(c2)OCO3)nc(Nc2cccc(N(C)C)c2)n1`: 5.32 µM. As for `COc1cc2nc(Nc3ccncc3)nc(Nc3ccc(N4CCOCC4)cc3)c2cc1OC`, the IC50 entry was “inactive”. Take `CC(C)n1cnc2c(NCc3cccc(C(F)(F)F)c3)nc(N3CCN(Cc4ccc5c(c4)OCO5)CC3)nc21`: the IC50 was 8.82 µM. With `Cc1ncn(-c2ccc(Nc3nccc(-c4cc(F)cc(-c5cn[nH]c5C)c4)n3)cc2)n1`, the IC50 was > 19.2 µM (inactive).

Regarding `c1cnc2ccc(Nc3nc(Nc4ccc(N5CCOCC5)cc4)c4[nH]cnc4n3)cc2c1`, the IC50 entry is “inactive”. For the compound `NC(=O)c1cc2ccccc2cc1Nc1ccnc(Nc2ccc(N3CCOCC3)cc2)c1`, the IC50 was > 19.2 µM (inactive). On to `COc1cc2nc(Nc3ccc(N4CCOCC4)cc3)nc(Nc3cc(OC)c(OC)c(OC)c3)c2cc1OC`, for which the IC50 entry was “inactive”. With `c1cc(Nc2ccc3c(c2)OCO3)nc(Nc2ccc(N3CCOCC3)cc2)n1`, the IC50 entry is “inactive”. Then `Nc1nc(Nc2ccc(N3CCOCC3)cc2)cc(-c2ccc3[nH]ccc3c2)n1`, with 8.21 µM; and `CCN(CC)C(=O)C1CCCN(c2nc(Nc3ccc(N4CCOCC4)cc3)c3ncn(Cc4ccc(C(F)(F)F)cc4)c3n2)C1` (stereo not given), with “inactive”; and `CCN(CC)c1nc(Nc2ccc(N3CCOCC3)cc2)nc(Nc2ccc(-n3ccnc3)cc2)n1`, with 8.79 µM.

Turning to `Cn1ccc2cc(-c3cc(Nc4ccc(N5CCOCC5)cc4)nc(N)n3)ccc21`, the IC50 is > 20 µM (inactive). Then `COc1ccc(CCNc2nc(N3CCN(Cc4ccc5c(c4)OCO5)CC3)nc3c2ncn3C2CCCCC2)cc1`, with > 22.5 µM (inactive); and `COc1cc(Nc2nc(N3CCc4ccccc4C3)nc3c2ncn3C(C)C)cc(OC)c1OC`, with > 20.1 µM (inactive); and `O=C(Nc1ccccc1)c1ccccc1Nc1ccnc(Nc2ccc(N3CCOCC3)cc2)c1`, with > 19.2 µM (inactive). In the case of `FC(F)(F)c1ccc(Cn2cnc3c(Nc4ccc(N5CCOCC5)cc4)nc(N4CCN(c5ccccn5)CC4)nc32)cc1`, the IC50 was > 20 µM (inactive). Next, `Cc1cc(Nc2ccc(N3CCOCC3)cc2)nc(Nc2cccc(N(C)C)c2)n1`: > 19.9 µM (inactive); `COc1ccc2c(c1)CC(C(=O)Nc1ccc(-c3cn[nH]c3)cc1OCCOCc1ccccc1)CO2` (stereo not given): > 19.2 µM (inactive). Regarding `O=C(NC1CC1)c1ccc(-c2nc(NCc3cccc(C(F)(F)F)c3)c3ncn(-c4ccccc4)c3n2)cc1`, the IC50 is > 19.9 µM (inactive). As to `c1ccc(CCn2ncc(-c3ccnc(Nc4ccc(N5CCOCC5)cc4)c3)c2Nc2ccccc2)cc1`, the IC50 was > 19.2 µM (inactive). Then `COc1cc(Nc2ccnc(Nc3cccc(N(C)C)c3)n2)cc(OC)c1OC`, with 6.84 µM; and `Oc1ccc(CCNc2nc(NC3CCN(Cc4ccccc4)CC3)nc3c2ncn3Cc2ccc(C(F)(F)F)cc2)cc1`, with “inactive”; and `Cc1ccc(-c2ncn(-c3ccc(Nc4nccc(-c5cncc6ccccc56)n4)cc3)n2)cn1`, with > 19.2 µM (inactive). As for `Oc1ccc(CCNc2nc(N3CCN(Cc4ccc5c(c4)OCO5)CC3)nc3c2ncn3-c2ccsc2)cc1`, the IC50 entry is “inactive”. On to `CN(C)c1cccc(Nc2nc(Nc3ccc4c(c3)OCO4)c3ncn(Cc4ccc(C(F)(F)F)cc4)c3n2)c1`, for which the IC50 result is “inactive”. Consider `c1nc(Nc2ccc(N3CCOCC3)cc2)c2[nH]c(N3CCN(Cc4ccc5c(c4)OCO5)CC3)nc2n1`, for which the IC50 is > 13.8 µM (inactive). Then `c1ccc(N2CCN(c3nc(Nc4ccc(N5CCOCC5)cc4)c4ncn(C5CCCCC5)c4n3)CC2)nc1`, with > 22.8 µM (inactive); and `COc1ccc(CCNc2nc(Nc3ccc(N4CCOCC4)cc3)nc3c2ncn3-c2ccsc2)cc1`, with 9.53 µM. For `FC(F)(F)c1cccc(CNc2nc(Nc3ccc(N4CCOCC4)cc3)nc3nc[nH]c23)c1`, the IC50 result is “inactive”.

For `Cc1n[nH]c(C)c1-c1cc(F)cc(-c2ccnc(Nc3ccc(-n4cnc(N5CCOCC5)n4)cc3)n2)c1`, the IC50 is > 19.2 µM (inactive). On to `FC(F)(F)c1ccc(Cn2cnc3c(NCc4ccccc4)nc(-c4ccc(N5CCOCC5)nc4)nc32)cc1`, for which the IC50 is > 19.9 µM (inactive).

As for `Oc1ccc(CCNc2nc(N3CCN(c4ccccn4)CC3)nc3c2ncn3-c2ccsc2)cc1`, the IC50 was > 21.3 µM (inactive).

In the case of `Cc1cc(Nc2ccc3c(c2)OCO3)nc(Nc2ccc(N3CCOCC3)cc2)n1`, the IC50 result is “inactive”. As for `FC(F)(F)c1cccc(CNc2nc(N3CCN(Cc4ccc5c(c4)OCO5)CC3)nc3c2ncn3-c2ccccc2)c1`, the IC50 was > 20.1 µM (inactive).

Consider `FC(F)(F)c1ccc(Cn2cnc3c(Nc4ccc5c(c4)OCO5)nc(N4CCN(c5ccccn5)CC4)nc32)cc1`, for which the IC50 is > 20 µM (inactive).

Take `COc1ccc2c(c1)CC(C(=O)Nc1ccc(-c3cn[nH]c3)cc1OCCN(Cc1ccccc1)Cc1ccccc1)CO2` (stereo not given): the IC50 was > 19.2 µM (inactive). Then `c1ccc(CN2CCC(Nc3nc(Nc4ccc(N5CCOCC5)cc4)nc4c3ncn4-c3ccsc3)CC2)cc1`, with 9.41 µM; and `Cc1cc(NCCc2ccc(O)cc2)nc(Nc2cccc(N(C)C)c2)n1`, with “inactive”; and `Cc1cc(Nc2ccc(N3CCOCC3)cc2)nc(N2CCN(Cc3ccc4c(c3)OCO4)CC2)n1`, with “inactive”. Consider `c1cc(-n2cnc3c(Nc4ccc5c(c4)OCO5)nc(Nc4ccc(N5CCOCC5)cc4)nc32)cs1`, for which the 50% inhibitory concentration (IC50) was 5.72 µM. Next, `c1cc(-n2cnc3c(Nc4ccc(N5CCOCC5)cc4)nc(N4CCN(Cc5ccc6c(c5)OCO6)CC4)nc32)cs1`: “inactive”; `FC(F)(F)c1ccc(Cn2cnc3c(Nc4ccc5c(c4)OCO5)nc(Nc4ccc(N5CCOCC5)cc4)nc32)cc1`: 5.36 µM; `O=C1CCCN1CCCNc1nc(Nc2ccc(-n3ccnc3)cc2)nc2c1ncn2-c1ccsc1`: > 19.9 µM (inactive). Next, `CN(C)c1cccc(Nc2ccc(-n3cc(CC(=O)Nc4ccc(N5CCOCC5)cc4)c4ccccc43)nn2)c1`: > 20.1 µM (inactive); `O=C(Cc1cn(-c2ccc(Nc3nccc4ccccc34)nn2)c2ccccc12)Nc1ccc2c(c1)OCO2`: > 21.6 µM (inactive); `COc1ccc(CCNc2nc(Nc3cccc(N(C)C)c3)nc3cc(OC)c(OC)cc23)cc1`: “inactive”. As to `Cc1nc(C)n(-c2ccc(Nc3nccc(-c4cc(F)cc(-c5cn[nH]c5C)c4)n3)cc2)n1`, the IC50 was > 19.2 µM (inactive). As for `COc1cc2nc(Nc3ccccc3)nc(Nc3ccc(N4CCOCC4)cc3)c2cc1OC`, the IC50 is > 24 µM (inactive). Take `c1ccc(Nc2cc(-c3ccnc(Nc4ccc(N5CCOCC5)cc4)c3)nn2-c2ccccc2)cc1`: the IC50 was > 19.2 µM (inactive). Turning to `FC(F)(F)c1cc(-c2ccnc(Nc3ccc(N4CCOCC4)cc3)n2)cc(N2CCOCC2)c1`, the IC50 was > 19.2 µM (inactive). Then `COc1cc(NC(=O)c2cccc(-n3cc(NC(=O)Nc4c(C)cccc4Cl)cn3)c2)cc(OC)c1OC`, with > 19.2 µM (inactive); and `c1ccc(OCCNc2nc(Nc3ccc(N4CCOCC4)cc3)nc3c2ncn3C2CCCCC2)cc1`, with 5.66 µM; and `CC(C)n1cnc2c(NCc3cccc(C(F)(F)F)c3)nc(Nc3ccc(N4CCOCC4)cc3)nc21`, with 5.42 µM. Next, `CC(C)n1c(-c2ccc(C(N)=O)cc2)nc2c(Nc3ccc(Oc4ccccc4)cc3)ncnc21`: > 20 µM (inactive); `c1cc(-n2cnc3c(Nc4ccc(N5CCOCC5)cc4)nc(NCc4ccc5c(c4)OCO5)nc32)cs1`: > 19.9 µM (inactive); `COc1cc2nc(Nc3cccc(N(C)C)c3)nc(NCCOc3ccccc3)c2cc1OC`: > 20.4 µM (inactive). For the compound `COc1ccc(CCNc2nc(Nc3cccc(N(C)C)c3)nc3c2ncn3C(C)C)cc1`, the IC50 was > 20 µM (inactive).

With `Cc1cnc(-c2ccc(C(N)=O)cc2)nc1Nc1ccc(N2CCOCC2)cc1`, the IC50 entry was “inactive”. As for `CN(C)c1cccc(Nc2nccc(Nc3ccc4c(c3)OCO4)n2)c1`, the IC50 entry is “inactive”. `CN(C)c1cccc(Nc2nc(NCCc3ccc(O)cc3)c3ncn(C4CCCCC4)c3n2)c1`: the IC50 was > 20 µM (inactive). Then `Cc1ccc(-c2cccc3cnc(Nc4ccc(-n5cnc(C)n5)cc4)nc23)cn1`, with > 19.2 µM (inactive); and `COc1cc2nc(NCc3ccc4c(c3)OCO4)nc(Nc3ccc(N4CCOCC4)cc3)c2cc1OC`, with > 19.9 µM (inactive). Next, `c1cc(-n2cnc3c(NC4CC4)nc(Nc4ccc(N5CCOCC5)cc4)nc32)cs1`: “inactive”. With `COc1ccc(CCNc2nc(NC3CCN(Cc4ccccc4)CC3)nc3c2ncn3C2CCCCC2)cc1`, the IC50 result was “inactive”. For the compound `c1ccc2c(c1)OCC(c1nc(N3CCOCC3)c3cc(-c4cn[nH]c4)ccc3n1)O2` (stereo not given), the IC50 was > 19.2 µM (inactive).

On to `COc1cc2nc(Nc3cccc(N(C)C)c3)nc(Nc3cc(OC)c(OC)c(OC)c3)c2cc1OC`, for which the IC50 is > 19 µM (inactive).
